According to the supplement of paper PMC6045584:
± gives the standard deviation of the averaged measurements.

Experiments:
[1] = compound: Cc1c(N)nc([C@H](CC(N)=O)NC[C@H](N)C(N)=O)nc1C(=O)N[C@H](C(=O)N[C@H](C)[C@@H](O)[C@H](C)C(=O)N[C@H](C(=O)NCCc1nc(-c2nc(C(=O)NCCC[S+](C)C)cs2)cs1)[C@@H](C)O)[C@@H](OC1OC(CO)C(O)C(O)C1OC1OC(CO)C(O)C(OC(N)=O)C1O)c1cnc[nH]1 [BLEOMYCIN]; experiment: surviving fraction relative to DMSO-only wells; higher = less growth inhibition; settings: exposure time: 5 days
Summary of the method: (§1)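 Surviving fraction was calculated by normalising CellTiter-Glo luminescence to the median of DMSO-only wells. Tumour cell lines in log phase were seeded in 384-well plates at 250–500 cells per well, and 24 hours later were exposed continuously for five days to inhibitors at 0.5, 1, 5, 10, 50, 100, 500 and 1000 nM.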

[2] = compound: O=C(CCCCCCC(=O)Nc1ccccc1)NO [VORINOSTAT]; experiment: as above; settings: exposure time: 5 days
Summary of the method: as §1

Test System | surviving fraction ([1]; 0.5 nM) | surviving fraction ([1]; 1 nM) | surviving fraction ([1]; 5 nM) | surviving fraction ([1]; 10 nM) | surviving fraction ([1]; 50 nM) | surviving fraction ([1]; 100 nM) | surviving fraction ([1]; 500 nM) | surviving fraction ([1]; 1000 nM) | surviving fraction ([2]; 0.5 nM) | surviving fraction ([2]; 1 nM) | surviving fraction ([2]; 5 nM) | surviving fraction ([2]; 10 nM) | surviving fraction ([2]; 50 nM) | surviving fraction ([2]; 100 nM) | surviving fraction ([2]; 500 nM) | surviving fraction ([2]; 1000 nM)
G292 BONE | 0.912 ± 0.048 | 0.887 ± 0.0095 | 0.801 ± 0.052 | 0.741 ± 0.067 | 0.553 ± 0.027 | 0.474 ± 0.02 | 0.315 ± 0.017 | 0.276 ± 0.0065 | 1.02 ± 0.027 | 0.995 ± 0.029 | 0.982 ± 0.046 | 1.04 ± 0.047 | 0.979 ± 0.04 | 0.947 ± 0.036 | 0.691 ± 0.032 | 0.511 ± 0.03
HCC38 BREAST | 0.725 ± 0.19 | 0.725 ± 0.085 | 0.793 ± 0.22 | 0.776 ± 0.18 | 0.91 ± 0.23 | 0.781 ± 0.11 | 0.697 ± 0.14 | 0.498 ± 0.046 | 1.25 ± 0.035 | 1.25 ± 0.028 | 1.27 ± 0.15 | 1.24 ± 0.097 | 1.42 ± 0.26 | 1.23 ± 0.21 | 1.06 ± 0.066 | 0.633 ± 0.11
HCC70 BREAST | 0.965 ± 0.055 | 1 ± 0.086 | 0.935 ± 0.13 | 0.981 ± 0.026 | 0.835 ± 0.052 | 0.746 ± 0.052 | 0.606 ± 0.097 | 0.47 ± 0.076 | 0.965 ± 0.061 | 0.963 ± 0.042 | 1 ± 0.054 | 1.02 ± 0.11 | 1.06 ± 0.094 | 0.973 ± 0.073 | 0.766 ± 0.037 | 0.496 ± 0.049
HMLE3 BREAST | 0.873 ± 0.098 | 0.892 ± 0.032 | 0.858 ± 0.085 | 0.907 ± 0.046 | 0.933 ± 0.044 | 0.967 ± 0.055 | 0.956 ± 0.042 | 0.864 ± 0.064 | 0.914 ± 0.067 | 0.95 ± 0.038 | 1.11 ± 0.03 | 1.01 ± 0.095 | 1.04 ± 0.042 | 1.09 ± 0.049 | 0.982 ± 0.066 | 0.702 ± 0.073
HMT3552 BREAST | 0.873 | 0.943 | 0.9 | 0.807 | 0.55 | 0.299 | 0.15 | 0.182 | 0.95 | 1.12 | 1.03 | 1.01 | 1.09 | 1.14 | 0.656 | 0.329
HS57T BREAST | 0.868 ± 0.026 | 0.91 ± 0.11 | 0.9263 ± 0.0091 | 0.918 ± 0.057 | 0.842 ± 0.032 | 0.723 ± 0.034 | 0.36 ± 0.041 | 0.225 ± 0.0065 | 0.935 ± 0.066 | 0.992 ± 0.038 | 1.01 ± 0.073 | 1.071 ± 0.009 | 1.04 ± 0.052 | 0.995 ± 0.056 | 0.804 ± 0.049 | 0.475 ± 0.026
HS578T BREAST | 0.759 ± 0.12 | 0.774 ± 0.11 | 0.842 ± 0.043 | 0.783 ± 0.071 | 0.746 ± 0.074 | 0.596 ± 0.1 | 0.364 ± 0.021 | 0.359 ± 0.033 | 0.951 ± 0.12 | 0.888 ± 0.12 | 0.922 ± 0.2 | 0.989 ± 0.11 | 0.945 ± 0.2 | 0.821 ± 0.068 | 0.569 ± 0.08 | 0.347 ± 0.034
